Test results as given in patent US20260007683A1, “PHARMACEUTICAL COMPOSITIONS COMPRISING HIV INTEGRASE INHIBITORS” (Gilead Sciences, Inc., priority 2024, published 2026).

Assays:
[1] = Hygroscopicity by dynamic vapor sorption (DVS); type: physicochemical; settings: for change of solid form post DVS experiment: after DVS cycle 5-95% RH at 25° C.; for water absorbed (dynamic vapor sorption): up to 95% RH at 25° C.
Experimental: Hygroscopicity was studied using dynamic vapor sorption (DVS, TA Q5000 SA, TA Instruments, New Castle, DE or DVS, DVS Intrinsic, Surface Measurement Systems, London, UK). A sample (1-20 mg) was placed in an aluminum DVS pan and loaded on the sample side of the twin pan balance. The water sorption and desorption were studied as a function of relative humidity (RH) at 25° C. In 10% RH increments, the relative humidity was increased from 5% RH to 95% RH and then decreased back to 5%. […] Data analysis was performed using Universal Analysis 2000 Version 4.7A (TA Instruments, New Castle, DE) for TA DVS runs and Microsoft Excel for SMS DVS runs.

[2] = Drying of solid form under ambient conditions (form conversion); type: physicochemical
Description: Compound of Formula I, Form II is a metastable methanol solvated phase. It was isolated when compound of Formula I, Form I was slurried in methanol for about 60 days and identified by x-ray of the wet cake.

Row | Compound | change of solid form post DVS experiment [1] | water absorbed (dynamic vapor sorption) [1] | form conversion upon drying [2]
1 | O=C(NCc1c(F)cc(F)cc1F)c1cn2c(c(O)c1=O)C(=O)N1CCCC[C@H]2C1 [Compound of Formula I, Form I, (7S)-12-hydroxy-1,11-dioxo-N-(2,4,6-trifluorobenzyl)-1,4,5,6,7,11-hexahydro-3H-2,7-methanopyrido[1,2-a][1,4]diazonine-10-carboxamide] | not have changed form | about 0.097% | –
2 | O=C(NCc1c(F)cc(F)cc1F)c1cn2c(c(O)c1=O)C(=O)N1CCCC[C@H]2C1 [Compound of Formula I, Form II, (7S)-12-hydroxy-1,11-dioxo-N-(2,4,6-trifluorobenzyl)-1,4,5,6,7,11-hexahydro-3H-2,7-methanopyrido[1,2-a][1,4]diazonine-10-carboxamide] | – | – | convert to compound of Formula I, Form III
3 | O=C(NCc1c(F)cc(F)cc1F)c1cn2c(c(O)c1=O)C(=O)N1CCCC[C@H]2C1 [Compound of Formula I, Form III, (7S)-12-hydroxy-1,11-dioxo-N-(2,4,6-trifluorobenzyl)-1,4,5,6,7,11-hexahydro-3H-2,7-methanopyrido[1,2-a][1,4]diazonine-10-carboxamide] | not have changed form | about 0.87% | –
4 | O=C(NCc1c(F)cc(F)cc1F)c1cn2c(c(O)c1=O)C(=O)N1CCCC[C@H]2C1 [Compound of Formula I, Form IV, (7S)-12-hydroxy-1,11-dioxo-N-(2,4,6-trifluorobenzyl)-1,4,5,6,7,11-hexahydro-3H-2,7-methanopyrido[1,2-a][1,4]diazonine-10-carboxamide] | not have changed form | about 3.5% | –
